Values quoted from earlier work in patent US20180353175A1, “Surgical Fastener with Broad Spectrum MMP Inhibitors” (Ethicon LLC, priority 2017, published 2018).
Where two headings read alike, the source gives them in different places. Square brackets hold non-standard residues; d marks the D form. Peptide text beside a SMILES is read from it. * marks the point of attachment. 4Abz = Nc1ccc(C(=O)O)cc1; NHOH = ON*

Experiments:
[1] = target: MMP3 (Homo sapiens, UniProt P08254)
[2] = target: T1, MMP1 (Homo sapiens, UniProt P03956)
T1 sequence (P03956 100-469): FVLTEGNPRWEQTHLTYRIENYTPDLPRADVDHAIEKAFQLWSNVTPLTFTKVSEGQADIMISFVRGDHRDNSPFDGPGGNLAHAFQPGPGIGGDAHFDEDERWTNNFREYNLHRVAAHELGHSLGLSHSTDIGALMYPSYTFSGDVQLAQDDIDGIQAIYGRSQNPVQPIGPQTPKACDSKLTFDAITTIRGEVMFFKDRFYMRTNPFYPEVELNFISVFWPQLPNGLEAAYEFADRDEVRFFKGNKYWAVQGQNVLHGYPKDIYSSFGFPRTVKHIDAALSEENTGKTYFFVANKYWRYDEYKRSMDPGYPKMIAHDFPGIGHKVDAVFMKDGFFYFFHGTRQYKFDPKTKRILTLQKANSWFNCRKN

[3] = target: MMP9 (Homo sapiens, UniProt P14780); details: for IC50: read-out: IC50 MMP9
[4] = target: T2, MMP7 (Homo sapiens, UniProt P09237); details: for IC50: read-out: IC50 MMP7
T2 sequence (P09237 95-267): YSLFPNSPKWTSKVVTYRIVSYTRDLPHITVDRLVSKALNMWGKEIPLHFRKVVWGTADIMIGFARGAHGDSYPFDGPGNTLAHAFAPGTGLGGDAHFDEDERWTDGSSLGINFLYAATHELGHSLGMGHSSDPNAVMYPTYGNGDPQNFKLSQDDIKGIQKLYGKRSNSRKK

[5] = target: T3, MMP2 (Homo sapiens, UniProt P08253); details: for IC50: read-out: IC50 MMP2
T3 sequence (P08253 110-660): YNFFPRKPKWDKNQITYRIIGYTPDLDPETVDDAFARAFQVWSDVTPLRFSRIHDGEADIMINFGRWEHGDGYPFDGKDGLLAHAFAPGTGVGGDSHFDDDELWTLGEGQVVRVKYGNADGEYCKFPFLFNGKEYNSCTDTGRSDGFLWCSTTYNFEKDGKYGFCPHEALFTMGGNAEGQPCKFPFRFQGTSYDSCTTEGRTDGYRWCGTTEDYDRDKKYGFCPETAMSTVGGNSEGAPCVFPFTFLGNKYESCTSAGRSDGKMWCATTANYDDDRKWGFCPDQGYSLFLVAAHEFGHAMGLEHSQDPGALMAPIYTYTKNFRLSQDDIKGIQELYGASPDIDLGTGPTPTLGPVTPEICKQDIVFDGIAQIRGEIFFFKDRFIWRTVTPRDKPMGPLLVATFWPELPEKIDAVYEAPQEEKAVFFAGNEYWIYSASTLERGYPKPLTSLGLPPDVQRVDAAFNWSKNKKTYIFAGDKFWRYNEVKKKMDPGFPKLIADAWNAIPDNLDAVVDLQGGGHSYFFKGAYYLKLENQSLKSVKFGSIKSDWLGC

[6] = target: MMP14 (Homo sapiens, UniProt P50281)
[7] = target: MMP8 (Homo sapiens, UniProt P22894)
[8] = target: MMP13 (Homo sapiens, UniProt P45452)
[9] = target: MMP12 (Homo sapiens, UniProt P39900)
[10] = test system: MMPs
[11] = target: TACE (TNF-α-converting enzyme) (Homo sapiens, UniProt P78536)
[12] = read-out: IC50 MMP8 (converted)

Sequence of MMP3 (P08254 100-477, species assumed): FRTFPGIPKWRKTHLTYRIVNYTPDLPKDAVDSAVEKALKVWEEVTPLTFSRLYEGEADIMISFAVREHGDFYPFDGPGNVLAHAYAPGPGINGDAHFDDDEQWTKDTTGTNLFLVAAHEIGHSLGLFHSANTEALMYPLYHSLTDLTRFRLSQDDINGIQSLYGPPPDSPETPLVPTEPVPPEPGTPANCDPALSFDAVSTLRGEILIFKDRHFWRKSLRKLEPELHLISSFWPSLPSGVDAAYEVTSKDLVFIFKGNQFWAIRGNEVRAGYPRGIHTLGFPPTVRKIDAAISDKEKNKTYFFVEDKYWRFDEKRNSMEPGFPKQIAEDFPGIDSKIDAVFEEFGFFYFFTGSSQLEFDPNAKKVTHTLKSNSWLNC
Sequence of MMP9 (P14780 94-707, species assumed): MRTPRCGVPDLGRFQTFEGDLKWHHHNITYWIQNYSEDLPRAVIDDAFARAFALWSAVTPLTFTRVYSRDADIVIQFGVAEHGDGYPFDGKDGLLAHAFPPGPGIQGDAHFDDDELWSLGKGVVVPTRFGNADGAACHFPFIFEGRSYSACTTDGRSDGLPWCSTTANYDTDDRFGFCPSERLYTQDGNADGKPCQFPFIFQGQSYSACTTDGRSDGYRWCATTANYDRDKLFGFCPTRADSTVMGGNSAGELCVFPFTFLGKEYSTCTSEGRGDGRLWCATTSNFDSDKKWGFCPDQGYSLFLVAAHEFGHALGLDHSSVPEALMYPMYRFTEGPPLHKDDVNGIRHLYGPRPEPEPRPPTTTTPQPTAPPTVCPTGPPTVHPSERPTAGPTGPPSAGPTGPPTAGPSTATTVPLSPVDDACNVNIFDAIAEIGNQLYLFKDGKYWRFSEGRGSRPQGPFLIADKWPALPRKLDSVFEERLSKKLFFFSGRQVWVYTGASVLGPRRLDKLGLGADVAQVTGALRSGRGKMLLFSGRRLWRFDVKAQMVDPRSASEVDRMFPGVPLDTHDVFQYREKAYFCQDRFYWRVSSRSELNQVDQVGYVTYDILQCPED
Sequence of MMP8 (P22894 101-467, species assumed): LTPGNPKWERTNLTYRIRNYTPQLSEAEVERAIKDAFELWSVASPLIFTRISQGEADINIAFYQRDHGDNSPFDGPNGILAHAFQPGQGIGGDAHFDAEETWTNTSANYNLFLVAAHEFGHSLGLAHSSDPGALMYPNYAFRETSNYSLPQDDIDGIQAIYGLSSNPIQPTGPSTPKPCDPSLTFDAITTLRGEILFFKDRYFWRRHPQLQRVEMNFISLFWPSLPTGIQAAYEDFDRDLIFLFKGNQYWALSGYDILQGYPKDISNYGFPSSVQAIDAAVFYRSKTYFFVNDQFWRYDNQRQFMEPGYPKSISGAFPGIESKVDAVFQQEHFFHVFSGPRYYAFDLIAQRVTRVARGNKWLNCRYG
Sequence of MMP12 (P39900 106-470, species assumed): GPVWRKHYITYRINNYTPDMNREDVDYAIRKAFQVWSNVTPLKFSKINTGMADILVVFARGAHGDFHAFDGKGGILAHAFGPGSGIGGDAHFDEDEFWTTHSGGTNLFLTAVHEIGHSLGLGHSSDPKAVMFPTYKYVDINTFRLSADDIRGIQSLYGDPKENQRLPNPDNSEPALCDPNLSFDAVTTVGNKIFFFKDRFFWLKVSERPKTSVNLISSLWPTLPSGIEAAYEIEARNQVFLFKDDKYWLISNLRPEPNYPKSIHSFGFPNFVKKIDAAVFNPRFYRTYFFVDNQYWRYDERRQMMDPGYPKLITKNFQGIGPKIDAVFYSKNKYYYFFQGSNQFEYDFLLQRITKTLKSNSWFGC
Sequence of TACE (TNF-α-converting enzyme) (P78536 215-824, species assumed): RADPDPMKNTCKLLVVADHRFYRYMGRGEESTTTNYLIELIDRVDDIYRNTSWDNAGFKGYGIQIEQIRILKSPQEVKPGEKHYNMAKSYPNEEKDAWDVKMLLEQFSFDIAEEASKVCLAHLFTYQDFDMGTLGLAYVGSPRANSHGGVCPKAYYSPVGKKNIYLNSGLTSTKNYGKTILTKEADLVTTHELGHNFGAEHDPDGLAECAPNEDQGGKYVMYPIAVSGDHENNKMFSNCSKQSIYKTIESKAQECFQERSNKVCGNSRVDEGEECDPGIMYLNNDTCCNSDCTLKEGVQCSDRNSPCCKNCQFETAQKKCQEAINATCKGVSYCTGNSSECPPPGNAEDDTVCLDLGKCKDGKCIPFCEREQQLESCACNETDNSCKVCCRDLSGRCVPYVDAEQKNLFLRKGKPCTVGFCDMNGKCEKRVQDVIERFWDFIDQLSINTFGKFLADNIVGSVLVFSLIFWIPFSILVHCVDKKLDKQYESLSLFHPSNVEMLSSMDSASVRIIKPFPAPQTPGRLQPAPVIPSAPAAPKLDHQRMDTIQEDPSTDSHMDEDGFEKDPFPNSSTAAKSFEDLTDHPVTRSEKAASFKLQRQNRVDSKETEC

Molecule: 7-dimethylamino-6-dimethyl-6-deoxytetracycline [Minocycline]
- IC50 [1]: 290000 nM
- inhibition of MMP1 (in words) [2]: effective for the inhibition
- IC50 [3]: 180000 nM
- IC50 [4]: 125000 nM
- inhibition of MMP2 (in words) [5]: effective for the inhibition

Molecule: O=C(NO)C1(S(=O)(=O)c2ccc(Oc3ccc(Cl)cc3)cc2)CCN(Cc2ccccc2)CC1 [239796-97-5]
- inhibition of MMP1 (in words) [2]: suppress

Molecule: CC1(C)NC(=O)N(C[C@@H](COc2ccc(-c3ccc(OC(F)(F)F)cc3)cc2)N(O)C=O)C1=O [ABT-770]
- inhibition of MMP9 (in words) [3]: inhibits
- inhibition of MMP2 (in words) [5]: inhibits

Molecule: C=CCN(C(=O)CCC(=O)N(O)CC(C)C)C(Cc1ccccc1)C(=O)NC (stereo not drawn) [BB-1101]
- IC50 [6]: 10 nM
- IC50 [7, 12]: 3 nM
- IC50 [8]: 7 nM
- IC50 [1]: 30 nM
- IC50 [2]: 8 nM
- IC50 [3]: 3 nM
- IC50 [9]: 5 nM
- IC50 [4]: 60 nM
- IC50 [5]: 4 nM

Molecule: CNC(=O)[C@H](Cc1ccccc1)NC(=O)[C@H](CC(C)C)[C@H](CSc1cccs1)C(=O)NO [Batimastat]
- IC50 [3]: 1 nM
- IC50 [4]: 6 nM

Molecule: NC(=O)C1=C(O)CC2CC3Cc4cccc(O)c4C(=O)C3=C(O)C2(O)C1=O (stereo not drawn) [COL-3]
- IC50 [7, 12]: 129000 nM
- IC50 [8]: 808 nM
- IC50 [2]: 91600 nM

Molecule: CN1C(=O)N(C[C@H](C(=O)NO)[C@@H](CC2CCCC2)C(=O)N2CCCCC2)C(=O)C1(C)C [Cipemastat]
- inhibition of MMP3 (in words) [1]: can inhibit
- inhibition of MMP1 (in words) [2]: can inhibit
- inhibition of MMP9 (in words) [3]: can inhibit

Molecule: C[C@H]1c2cccc(O)c2C(=O)C2=C(O)[C@]3(O)C(=O)C(C(N)=O)=C(O)[C@@H](N(C)C)[C@@H]3[C@@H](O)[C@@H]21 [Doxycycline]
- IC50 [7, 12]: 26000 to 50000 nM
- IC50 [8]: 2000 to 50000 nM
- IC50 [1]: 32000 nM
- IC50 [2]: > 400000 nM
- IC50 [4]: 28000 nM
- IC50 [5]: 56000 nM

Molecule: CC(C)C[C@@H](NC(=O)[C@@H]1CCCN1C(=O)CNC(=O)c1ccc(N)cc1)C(=O)N[C@H](C)C(=O)NO [FN-439, p-aminobenzoyl-Gly-Pro-D-Leu-D-Ala-NHOH] (H-[4Abz]GP[dL][dA]-{NHOH})
- IC50 [7, 12]: 1000 nM
- IC50 [1]: 150000 nM
- IC50 [2]: 1000 nM
- IC50 [3]: 30000 nM

Molecule: COc1ccc(S(=O)(=O)N(Cc2cccnc2)[C@@H](C(=O)NO)C(C)C)cc1.Cl [MMI-270]
- inhibition of MMP8 (in words) [7]: can inhibit
- inhibition of MMP9 (in words) [3]: can inhibit
- inhibition of MMP2 (in words) [5]: can inhibit

Molecule: CCN(CC)Cc1cc(C)c(N(Cc2ccccc2)S(=O)(=O)c2ccc(OC)cc2)c(C(=O)NO)c1 [MMP9 inhibitor I]
- IC50 [2]: 1.05 nM

Molecule: CNC(=O)[C@@H](NC(=O)[C@H](CC(C)C)[C@H](O)C(=O)NO)C(C)(C)C [Marimastat]
- IC50 [6]: 1.8 nM

Molecule: CCOCOCC(CC(C)C(=O)NO)NC(=O)c1ccc(Oc2ccccc2)cc1 (stereo not drawn) [ONO-4817]
- Ki [7]: 1.1 nM
- Ki [8]: 1.1 nM
- Ki [1]: 42 nM
- IC50 [2]: 1.6 nM
- IC50 [3]: 2.1 nM
- Ki [9]: 0.45 nM
- Ki [4]: 2.5 nM
- Ki [5]: 0.73 nM

Molecule: CC1(C)SCCN(S(=O)(=O)c2ccc(Oc3ccncc3)cc2)[C@H]1C(=O)NO [Prinomastat]
- inhibition of MMP14 (in words) [6]: specific selectivity
- inhibition of MMP3 (in words) [1]: specific selectivity
- inhibition of MMP9 (in words) [3]: specific selectivity

Molecule: O=C(NO)C1(CS(=O)(=O)c2ccc(Oc3ccc(Cl)cc3)cc2)CCOCC1 [RS 130830]
- inhibition of MMP1 (in words) [2]: suppress

Molecule: O=C1NC(=O)C(c2ccc(-c3ccccc3)cc2)(N2CCN(c3ccc([N+](=O)[O-])cc3)CC2)C(=O)N1 [Ro 28-2653]
- IC50 ([7]; read-out: IC50 MMP8): 15 nM
- IC50 [3]: 12 to 23 nM
- IC50 [5]: 7 to 246 nM

Molecule: TIMP-1: endogenous tissue inhibitor of metalloproteinases; extensively glycosylated protein with a molecular mass of 28.5 kDa
- inhibition of MMP8 (in words) [7]: preferentially inhibits
- inhibition of MMPs in general (in words) [10]: inhibit most MMPs (except MMP-2 and -14)

B1: TIMP-4: endogenous tissue inhibitor of metalloproteinases, secreted predominantly in heart and brain tissue (protein, UniProt Q99727 30-224, looked up)
Metalloproteinase inhibitor 4: CSCAPAHPQQHICHSALVIRAKISSEKVVPASADPADTEKMLRYEIKQIKMFKGFEKVKDVQYIYTPFDSSLCGVKLEANSQKQYLLTGQVLSDGKVFIHLCNYIEPWEDLSLVQRESLNHHYHLNCGCQITTCYTVPCTISAPNECLWTDWLLERKLYGYQAQHYVCMKHVDGTCSWYRGHLPLRKEFVDIVQP
- inhibition of MMPs in general (in words) [10]: inhibits all known MMPs
- inhibition of MMP7 (in words) [4]: preferentially inhibits
- inhibition of MMP2 (in words) [5]: preferentially inhibits

B2: TIMP-3: endogenous tissue inhibitor of metalloproteinases, typically bound to the ECM (protein, UniProt P35625 24-211, looked up)
Metalloproteinase inhibitor 3: CTCSPSHPQDAFCNSDIVIRAKVVGKKLVKEGPFGTLVYTIKQMKMYRGFTKMPHVQYIHTEASESLCGLKLEVNKYQYLLTGRVYDGKMYTGLCNFVERWDQLTLSQRKGLNYRYHLGCNCKIKSCYYLPCFVTSKNECLWTDMLSNFGYPGYQSKHYACIRQKGGYCSWYRGWAPPDKSIINATDP
- inhibition of MMP13 (in words) [8]: inhibits the activity
- inhibition of TACE (in words) [11]: normally inhibits
- inhibition of MMP3 (in words) [1]: inhibits the activity
- inhibition of MMP1 (in words) [2]: inhibits the activity
- inhibition of MMP9 (in words) [3]: inhibits the activity
- inhibition of MMP2 (in words) [5]: inhibits the activity
